# Reference: patent US20250092383A1, “COMPOUNDS AND METHODS FOR FBXO22-MEDIATED PROTEIN DEGRADATION” (Northwestern University, priority 2023, published 2025)
# Tests used:
# Type in all cases: cell-based
# FKBP12-EGFP = target: T1, FKBP12-EGFP (Homo sapiens, UniProt P62942); experiment: E3 ligase focused CRISPR-Cas9 transcriptional activation screen for FKBP12-EGFP degradation; details: 2 μM 22-SLF, 24 hours, HEK293T CRISPR-Cas9 transcriptional activation cells
# T1 construct: expressed in transfected cells
# T1 sequence (P62942 whole entry): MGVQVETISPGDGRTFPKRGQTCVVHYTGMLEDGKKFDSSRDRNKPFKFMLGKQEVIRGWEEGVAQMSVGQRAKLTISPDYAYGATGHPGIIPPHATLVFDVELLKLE
# Experimental: FIGS. 1A-1E show an E3 ligase focused CRISPR-Cas9 transcriptional activation screen identifies FBXO22 that supports 22-SLF-induced reduction in FKBP12-EGFP expression levels. FIG. 1A is a schematic representation of the steps in the CRISPR-Cas9 transcriptional activation screen. […] FIG. 1C is a volcano plot showing the E3 ligase focused CRISPR-Cas9 transcriptional activation screen for FKBP12-EGFP degradation after treatment of 2 μM 22-SLF in HEK293T CRISPR-Cas9 transcriptional activation cells for 24 hours. […] The statistical significance was evaluated through unpaired two-tailed Student's t-tests, comparing cells transduced with FBXO22 sgRNA to control sgRNA. Statistical significance denoted ****P<0.0001. […] The statistical significance was evaluated through unpaired two-tailed Student's t-tests, comparing cells treated with 22-SLF to DMSO. Statistical significance denoted as ***P<0.001 and ns: not significant.
# With the CRISPR-Cas9 transcriptional activation cells, a CRISPR-Cas9 transcriptional activation pool screen was developed to identify E3 ligases that support FKBP12 degradation by FKBP12-directed heterobifunctional compounds. […] Subsequently, cells from the bottom 15% of the GFP population were isolated using fluorescence-activated cell sorting (FIG. 1a and FIG. 7). […]
# CUTA = target: T2, CUTA (Homo sapiens, UniProt O60888); experiment: MS-based global proteomic analysis in A549 parental and FBXO22 knockout cells (CUTA); details: 2 μM, 24 hours
# T2 construct: endogenous in cells; host or cells: A549 parental and FBXO22 knockout
# T2 sequence (O60888 33-179): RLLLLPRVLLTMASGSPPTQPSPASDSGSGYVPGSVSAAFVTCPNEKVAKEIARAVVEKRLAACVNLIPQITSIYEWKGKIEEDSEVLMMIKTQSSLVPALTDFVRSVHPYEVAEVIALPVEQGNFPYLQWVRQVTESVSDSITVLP
# From the text: As an F-box protein, FBXO22 is a pivotal player in the context of tumor progression. FBXO22 has many oncogenic functions, including propelling the ubiquitination and subsequent degradation of a diverse spectrum of substrates, such as histone lysine demethylase 4 subfamily KDM4A/B, methylated p53, p21, PTEN, KLF4, and LKB1. […] To establish the role of endogenous FBXO22 in facilitating 22-SLF-induced FKBP12 degradation, FBXO22 knockout was used in a panel of cancer cell lines, including A549 (lung cancer), MDA-MB-231 (breast cancer), and PC3 (prostate cancer). The efficacy of FBXO22 knockout was verified through both genomic PCR and global proteomic analysis (FIG. 8b,c). […] Furthermore, mass spectrometry (MS)-based global proteomic analysis was conducted on A549 parental and FBXO22 knockout cells, following the treatment with 2 μM 22-SLF for 24 hours. […] To further substantiate the engagement of FBXO22 by the electrophilic portion of 22-SLF, a biotin-conjugated probe known as 22-biotin (FIG. 2f) was synthesized. This probe was then immobilized onto streptavidin-coated beads, which were subsequently subjected to interaction with lysates from HEK293T cells expressing HA-tagged FBXO22.
# FKBP12 (mouse FBXO22) [1] = target: T3, FKBP12 (mouse FBXO22) (UniProt P62942+Q78JE5, C226A/C227A); experiment: FKBP12 degradation in HEK293T cells expressing mouse FBXO22; details: HEK293T cells
# T3 construct: expressed in transfected cells; host or cells: HEK293T
# T3 sequence (P62942 2-108): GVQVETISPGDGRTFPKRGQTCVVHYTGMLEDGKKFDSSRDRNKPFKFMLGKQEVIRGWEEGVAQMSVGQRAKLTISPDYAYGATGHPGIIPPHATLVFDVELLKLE
# T3 sequence (Q78JE5 whole entry C226A/C227A): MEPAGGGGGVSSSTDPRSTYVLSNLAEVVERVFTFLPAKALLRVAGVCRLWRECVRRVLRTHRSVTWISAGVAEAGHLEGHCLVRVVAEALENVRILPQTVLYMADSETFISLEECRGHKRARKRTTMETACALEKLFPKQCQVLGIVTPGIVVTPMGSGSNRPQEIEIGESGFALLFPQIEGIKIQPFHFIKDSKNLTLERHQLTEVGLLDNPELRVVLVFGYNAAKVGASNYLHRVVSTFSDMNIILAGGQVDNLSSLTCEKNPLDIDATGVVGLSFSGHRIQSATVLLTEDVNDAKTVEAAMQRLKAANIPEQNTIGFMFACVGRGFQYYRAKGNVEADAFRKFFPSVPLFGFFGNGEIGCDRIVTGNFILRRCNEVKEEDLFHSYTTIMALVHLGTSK
# From the text: (§1) FIGS. 3A-3H show FBXO22 C227 and C228 are involved in 22-SLF-mediated degradation of FKBP12. […] Among 5,650 quantified IA-DTB-modified peptides, four cysteines were identified on FBXO22 (C83, C117, C228, and C365). […] Data are presented as the mean values (n=2 biological independent samples for DMSO treatment; n=3 biological independent samples for 22-SLF Treatment). […] The bag graph represents quantification of the FLAG-FKBP12/HSP90 protein content. Data are presented as mean values (n=2 biological independent samples). […] The bar graph represents quantification of the FLAG-FKBP12/HSP90 protein content. Data are presented as the mean values (n=2 biological independent samples).
# (§2) Intriguingly, the peptide sequence containing the two consecutive cysteines (C227 and C228) is identical between human and mouse (FIG. 3f). To explore whether mouse FBXO22 can facilitate 22-SLF-induced FKBP12 degradation and if the conserved cysteines (C226 and C227 in mouse FBXO22) are pivotal, HEK293T cells expressing mouse FBXO22 wildtype, C226A, C227A, and C226AC227A, were generated.
# FKBP12 (mouse FBXO22) [2] = target: T4, FKBP12 (mouse FBXO22) (UniProt P62942+Q78JE5); experiment: as above; details: HEK293T cells expressing mouse FBXO22 wildtype
# T4 construct: expressed in transfected cells; host or cells: HEK293T
# T4 sequence (P62942 2-108): as the sequence (P62942 2-108) above
# T4 sequence (Q78JE5 whole entry): as the sequence (Q78JE5 whole entry C226A/C227A) above, with A226C, A227C counted along it
# T4 sequence (P63208 whole entry partner): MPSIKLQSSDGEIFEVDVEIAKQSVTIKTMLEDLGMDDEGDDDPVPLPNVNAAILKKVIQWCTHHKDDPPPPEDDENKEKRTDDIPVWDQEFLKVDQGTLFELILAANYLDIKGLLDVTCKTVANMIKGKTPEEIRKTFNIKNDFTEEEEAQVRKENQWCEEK
# From the text: as §1, §2
# FKBP12 = FKBP12 (Homo sapiens, UniProt P62942); experiment: Degradation of endogenous FKBP12 in cancer cell lines, wild type vs FBXO22 knockout
# FKBP12, sequence (P62942 whole entry): as the sequence (P62942 whole entry) above
# Experimental: The bar graph represents quantification of the FLAG-FKBP12/HSP90 protein content. Data are presented as the mean values±s.e.m. […] HEK293T cells expressing HA-FBXO22 were treated with 0.025-15 μM 22-SLF for 8 h. The graph represents quantification of the FLAG-FKBP12/HSP90 protein content. Data are presented as the mean values (n=2 biological independent samples). […] The bar graph represents quantification of the FLAG-FKBP12/HSP90 protein content. KO, knockout; WT, wild type. Data are presented as the mean values (n=2 biological independent samples). […] The bar graph represents quantification of the FLAG-FKBP12/HSP90 protein content. Data are presented as the mean values±s.e.m. […] The result is representative of two independent experiments with similar results. WCL, whole-cell lysate; IP, immunoprecipitate.
# Data is obtained from Gene Expression Profiling Interactive Analysis (GEPIA). […] KDM4A and KDM4B are two reported substrates of FBXO22.
# As an F-box protein, FBXO22 is a pivotal player in the context of tumor progression. FBXO22 has many oncogenic functions, including propelling the ubiquitination and subsequent degradation of a diverse spectrum of substrates, such as histone lysine demethylase 4 subfamily KDM4A/B, methylated p53, p21, PTEN, KLF4, and LKB1. […]
compound,measurement,setting,value
CCC(C)(C)C(=O)C(=O)N1CCCC[C@H]1C(=O)O[C@H](CCc1ccc(OC)c(OC)c1)c1cccc(OCC(=O)NCCCOCCOCCOCCCN(C(=O)CCl)C(C(=O)NCc2ccccc2)c2nc3ccccc3s2)c1 (stereo partly drawn) [22-SLF],Enrichment of sgRNAs in sorted low-GFP cells,FKBP12-EGFP,"substantial enrichment of two distinct sgRNAs targeting the same E3 ligase, FBXO22"
same,CUTA protein reduction in global proteomics,CUTA,"observed to undergo reduction upon 22-SLF treatment in A549 parental cells, but not in the FBXO22 knockout setting"
same,"FKBP12 degradation, mouse FBXO22 double mutant C226AC227A",FKBP12 (mouse FBXO22) [1],fully blocked the degradation
same,"FKBP12 degradation, mouse FBXO22 wildtype",FKBP12 (mouse FBXO22) [2],induced FBKP12 degradation
same,"Degradation of endogenous FKBP12, wild-type cells","FKBP12; A549, MDA-MB-231 and PC3, 2 μM in A549",promoted degradation of endogenous FKBP12
same,"Degradation of endogenous FKBP12, FBXO22 knockout cells","FKBP12; A549, MDA-MB-231 and PC3 FBXO22 knockout",abolished upon FBXO22 knockout
